Test system: Plasmodium falciparum
Assay: Radioactive antimalarial assay (parasite specific uptake of radiolabel)
Type: cell-based
Settings: P. falciparum
Description: Compound of formula Ia was evaluated against Eimeria tenella, Toxoplasma gondii, and Plasmodium falciparum according to methods reported in the literature.
The antimalarial activity was determined in a radioactive assay following the general protocol described in Desjardins et al, "Quantitative Assessment of Antimalarial Activity In Vitro by a Semiautomated Microdilution Technique" Antimicrobial Agents and Chemotherapy. 1979, 16:710-718.

`CCC(=O)CCCCC[C@@H]1NC(=O)[C@H]2CCCCN2C(=O)[C@H]([C@@H](C)CC)NC(=O)[C@H](Cc2cn(OC)c3ccccc23)NC1=O` [Ia] was tested, and the “IC50 (the concentration of drug which inhibits the parasite specific uptake of radiolabel by 50%)” value was 0.054 µg/mL.

Reference: patent publication US5861375A, “Antiprotozoal cyclic tetrapeptides” (Merck & Co., Inc., priority 1997, dated 1999)
